Experimental data: ChEMBL document CHEMBL1201862, “PubChem BioAssay data set” (2004)
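Compound exposure: 48 hours, 5 concentrations, 96-well plates. GI50 marks 50% less growth.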 Calls of active or inactive are those of the source. No stated cut-off is given here; in the data, active = GI50 up to about 1.1 µM and inactive = higher.

Legend:
Assay in all cases: NCI tumour cell line growth inhibition, 48 h
[1] = tested on: XF498
[2] = tested on: HOP-18
[3] = tested on: DMS-114
[4] = tested on: KM-20L2
[5] = tested on: SNB-78
[6] = tested on: M19-MEL
[7] = tested on: DMS-273
[8] = tested on: LXFL 529
[9] = tested on: RXF 631

| Compound | GI50 [1] | GI50 [2] | GI50 [3] | GI50 [4] | GI50 [5] | GI50 [6] | GI50 [7] | GI50 [8] | GI50 [9] |
| --- | --- | --- | --- | --- | --- | --- | --- | --- | --- |
| CN(C)CCNc1ccc2ncn3c4ccc(O)cc4c(=O)c1c23 | 4.13 µM (inactive) | 10.6 µM (inactive) | 0.526 µM (active) | 2.38 µM (inactive) | 3.03 µM (inactive) | 1.09 µM (active) | 0.317 µM (active) | 1.41 µM (inactive) |  |
| CC(C)OCN1COCN/C1=N/C#N |  | > 100 µM (inactive) | 58.6 µM (inactive) | > 100 µM (inactive) |  | > 100 µM (inactive) | 37.5 µM (inactive) | > 100 µM (inactive) | > 100 µM (inactive) |
| CN(C)CC/C(=N\Nc1c(Cl)cccc1Cl)c1ccccc1 |  | 15.1 µM (inactive) | 17.3 µM (inactive) | 17.1 µM (inactive) | 16.7 µM (inactive) | 18.3 µM (inactive) | 16.8 µM (inactive) | 14.8 µM (inactive) |  |
| O=c1oc2c3ccc4ccccc4c3n(Cc3nc4ccccc4[nH]3)c2c2ccccc12 |  | 7.57 µM (inactive) | 4.95 µM (inactive) | > 69.5 µM (inactive) | > 100 µM (inactive) | 5.46 µM (inactive) |  | 9.66 µM (inactive) |  |
| N#CC1C(=O)NC(=O)C1=O (stereo unspecified) | > 100 µM (inactive) | > 100 µM (inactive) | > 100 µM (inactive) | > 100 µM (inactive) | > 100 µM (inactive) | > 100 µM (inactive) | > 100 µM (inactive) | > 100 µM (inactive) | > 100 µM (inactive) |
| O/N=C/c1ccc(O)c(O)c1 | > 100 µM (inactive) |  | 14.7 µM (inactive) | > 100 µM (inactive) | > 100 µM (inactive) | > 100 µM (inactive) | 62.5 µM (inactive) | 84.9 µM (inactive) |  |
| Cc1cc(NS(=O)(=O)c2ccc(NC(=O)c3cccc4c(=O)c5ccccc5[nH]c34)cc2)no1 | 13.6 µM (inactive) | 10.2 µM (inactive) | 46 µM (inactive) | > 100 µM (inactive) | 38.7 µM (inactive) | 39.4 µM (inactive) |  | 15.7 µM (inactive) |  |
| CCCCN/C(=N/C#N)NCc1ccccc1 | > 100 µM (inactive) |  |  | > 100 µM (inactive) | > 100 µM (inactive) | > 100 µM (inactive) | > 100 µM (inactive) | > 100 µM (inactive) |  |
| Cc1ccc(/N=C/c2ccc3c(c2)OCO3)cc1C | > 100 µM (inactive) | > 100 µM (inactive) |  | > 100 µM (inactive) | > 100 µM (inactive) | > 100 µM (inactive) | > 100 µM (inactive) | > 100 µM (inactive) | > 100 µM (inactive) |
| O=C1CCC2CCOc3ccc(O)c1c32 (stereo unspecified) |  |  | > 100 µM (inactive) | > 100 µM (inactive) | > 100 µM (inactive) | > 100 µM (inactive) | > 100 µM (inactive) |  | > 100 µM (inactive) |
| O=C(O)CC1CC=C[C@H]2c3cc4c(cc3C(=O)NC12)OCO4 (stereo partly specified) |  |  | > 75 µM (inactive) | > 75 µM (inactive) | > 75 µM (inactive) | > 75 µM (inactive) | > 75 µM (inactive) | > 75 µM (inactive) |  |
| CCCN(CCC)C(=O)c1nc(N)nc(-c2ccc(OC)cc2)c1-c1ccc(OC)cc1 | > 100 µM (inactive) | 46.7 µM (inactive) | 84.9 µM (inactive) | > 100 µM (inactive) | 80.5 µM (inactive) |  | > 100 µM (inactive) | 82 µM (inactive) | > 100 µM (inactive) |
| O=C1[C@H]2ON(c3ccccc3)C(c3ccco3)[C@H]2C(=O)N1c1ccc(Cc2ccc(N3C(=O)[C@@H]4ON(c5ccccc5)C(c5ccco5)[C@@H]4C3=O)cc2)cc1 (stereo partly specified) | 42.7 µM (inactive) | > 100 µM (inactive) | > 100 µM (inactive) | > 100 µM (inactive) | > 100 µM (inactive) | > 100 µM (inactive) | 78.3 µM (inactive) | > 100 µM (inactive) |  |
| C(/COc1cccnc1)=N\NC1=NCCN1 | > 100 µM (inactive) | > 100 µM (inactive) | > 100 µM (inactive) | > 100 µM (inactive) | > 100 µM (inactive) | > 100 µM (inactive) | > 100 µM (inactive) | > 100 µM (inactive) |  |
| CCc1cc(C)cc2[n+]1CC=C2.[O-][Cl+3]([O-])([O-])[O-] | 2.56 µM (inactive) | 0.0676 µM (active) | 10 µM (inactive) | 21.5 µM (inactive) | 33.9 µM (inactive) | 13.8 µM (inactive) | 0.593 µM (active) | 4.17 µM (inactive) |  |
| CC12CC(=O)OC(Cc3ccccc31)O2 (stereo unspecified) | > 100 µM (inactive) | > 100 µM (inactive) | > 100 µM (inactive) | > 100 µM (inactive) | > 100 µM (inactive) | > 100 µM (inactive) | > 100 µM (inactive) | > 100 µM (inactive) |  |
| COc1cc(-c2cc(-c3cc([N+](=O)[O-])c(/C=N/NC(=O)c4ccncc4)o3)ccc2OC)ccc1C | > 100 µM (inactive) |  |  | > 100 µM (inactive) |  | > 100 µM (inactive) |  | > 100 µM (inactive) | > 100 µM (inactive) |
| CCOC(=O)c1sc2c(C(=O)OCC)n3ccccc3c2c1N | 25.3 µM (inactive) | > 100 µM (inactive) | 40.6 µM (inactive) | > 100 µM (inactive) | 50.9 µM (inactive) | > 100 µM (inactive) | 53.6 µM (inactive) |  |  |
| CCOC(=O)C(=O)Nc1nc2c(s1)C(=O)c1ccccc1C2=O | 13.9 µM (inactive) |  | 3.6 µM (inactive) | 21.2 µM (inactive) | 11.6 µM (inactive) | 2.49 µM (inactive) | 19.6 µM (inactive) | 13.4 µM (inactive) | 12.3 µM (inactive) |
| COC(=O)C1=C(C)C(=O)C2(CCCCCC2C(=O)OC)C1 (stereo unspecified) |  | > 100 µM (inactive) | > 100 µM (inactive) | > 100 µM (inactive) | > 100 µM (inactive) | > 100 µM (inactive) | > 100 µM (inactive) | > 100 µM (inactive) |  |
| COc1cc(O)c(C(=O)/C=C/c2ccc(OC)c(OCc3ccccc3)c2)c(OC)c1 | > 100 µM (inactive) | > 100 µM (inactive) |  | > 100 µM (inactive) | 2.57 µM (inactive) | > 100 µM (inactive) | 0.175 µM (active) | 5.45 µM (inactive) |  |
| COC(=O)[C@@]12OC[C@]34C([C@@H](O)C1O)[C@@]1(C)CC(=O)C(O)=C(C)C1C[C@H]3OC(=O)[C@H](OC(=O)CC(C)C(F)(F)F)[C@H]42 (stereo partly specified) | 0.00522 µM (active) | 0.308 µM (active) | 0.00948 µM (active) | 0.0195 µM (active) | 0.206 µM (active) | 0.0164 µM (active) | 0.00693 µM (active) | 0.00731 µM (active) |  |
| CCN(CC)CCCNc1ccc2nc(C)n3c4ccc(O)cc4c(=O)c1c23 | 6.81 µM (inactive) | 12.4 µM (inactive) | 5.41 µM (inactive) | 1.65 µM (inactive) | 5.35 µM (inactive) | 10.6 µM (inactive) | 0.619 µM (active) | 3.22 µM (inactive) | 3.79 µM (inactive) |
| CCN1/C(=C/C(C)=C/c2sc3ccccc3[n+]2CC)Sc2ccccc21 | 0.0762 µM (active) |  | 0.082 µM (active) | 0.191 µM (active) | 0.34 µM (active) | 0.173 µM (active) | 0.064 µM (active) | 0.0331 µM (active) |  |
| O=CN/C=C/c1ccc(O)c(O)c1 | > 100 µM (inactive) |  | > 100 µM (inactive) | > 100 µM (inactive) | > 100 µM (inactive) | > 100 µM (inactive) | > 100 µM (inactive) | > 100 µM (inactive) | > 100 µM (inactive) |
| O=c1cc(-c2ccc(O)cc2)oc2cc(O)cc(O)c12 [APIGENIN] | 24.2 µM (inactive) |  | 32.3 µM (inactive) | 28.8 µM (inactive) | 17.5 µM (inactive) | 33.5 µM (inactive) | 18.6 µM (inactive) | 18.2 µM (inactive) |  |
| COc1cc(-c2oc3c(OC)c(OC)cc(O)c3c(=O)c2OC)ccc1O [TERNATIN] | 2.2 µM (inactive) |  | > 100 µM (inactive) | > 100 µM (inactive) | 6.49 µM (inactive) |  |  | 3.98 µM (inactive) | > 100 µM (inactive) |
